Measured values reported in patent US20070213396A1, “Active Substance Combinations Having Insecticidal Properties” (BAYER CROPSCIENCE AG, priority 2004, published 2007).
Several values for one entry are separate records, joined by “and”; a condition that tells them apart may be missing. Equal entries are not always repeated.

Legend:
Type in all cases: in vivo
Details in all cases: single active compound
[1] = test system: Phaedon cochleariae larvae; experiment: Phaedon cochleariae larvae test (cabbage leaf dip)
From the text: (§1) The expected action for a given combination of two active compounds can be calculated as follows, according to S. R. Colby, Weeds 15 (1967), 20-22: • If • X is the kill rate, expressed as a percentage of the untreated control, when employing active compound A at an application rate of m g/ha or in a concentration of m ppm, • Y is the kill rate, expressed as a percentage of the untreated control, when employing active compound B at an application rate of n g/ha or in a concentration of n ppm and • E is the kill rate, expressed as a percentage of the untreated control, when employing active compounds A and B at application rates of m and n g/ha or in a concentration of m and n ppm, • then [formula] If the actual insecticidal kill rate exceeds the calculated value, the kill of the combination is superadditive, i.e. a synergistic effect is present. In this case, the actually observed kill rate must exceed the value calculated using the above formula for the expected kill rate (E).
phaedon cochlearise Larvae Teast
(§2) To produce a suitable preparation of active compound, 1 part by weight of active compound is mixed with the stated amounts of solvent and emulsifier, and the concentrate is diluted with emulsifier-containing water to the desired concentration.
Cabbage leaves (Brassica oleracea) are treated by being dipped into the preparation of active compound of the desired concentration and are populated with […] (Phaedon cochleariae) while the leaves are still moist.
(§3) After the desired period of time, the kill in % is determined. 100% means that all caterpillars have been killed; 0% means that none of the caterpillars have been killed. The determined kill rates are entered into Colby's formula (see sheet 1).

[2] = test system: caterpillars of the cotton bollworm (Heliothis armigera); experiment: Heliothis armigera test (cabbage leaf dip)
From the text: as §1, §2
Cabbage leaves (Brassica oleracea) are treated by being dipped into the preparation of active compound of the desired concentration and are populated with caterpillars of the cotton bollworm (Heliothis armigera) while the leaves are still moist.
as §3

[3] = test system: caterpillars of the beet armyworm (Spodoptera exigua); experiment: Spodoptera exigua test (cabbage leaf dip)
From the text: as §1
The produce a suitable preparation of active compound, 1 part by weight of active compound is mixed with the stated amounds of solvent and emulsifier, and the concentrate is diluted with emulsifier-containing water to the desired concentration. […]
After the desired period of time, the kill in % is determined. […] The determined kill rates are entered into Colby's formula (see sheet 1)

## CC1(C)[C@H](C(=O)O[C@H](C#N)c2cccc(Oc3ccccc3)c2)[C@@H]1C=C(Br)Br [deltamethrin]
[1]; 0.16 ppm
  Kill in % after 6 d: 50%
[2]; 0.032 ppm
  Kill in % after 3 d: 10%

## CC1(C)C(/C=C(\Cl)C(F)(F)F)C1C(=O)OC(C#N)c1cccc(Oc2ccccc2)c1 (stereo not drawn) [lambda-cyhalothrin]
[1]; 0.16 ppm
  Kill in % after 3 d: 15%

## CC1(C)C(C=C(Cl)Cl)C1C(=O)OCc1cccc(Oc2ccccc2)c1 (stereo not drawn) [permethrin]
[2]; 0.16 ppm
  Kill in % after 6 d: 15%
[3]; 0.16 ppm
  Kill in % after 6 d: 0%

## O=C(NC(=O)c1ccccc1Cl)Nc1ccc(OC(F)(F)F)cc1 [triflumuron]
[1]; 4 ppm
  Kill in % after 3 d: 25% and 35%
  Kill in % after 6 d: 65%
[2]; 0.8 ppm
  Kill in % after 3 d: 0%
[2]; 4 ppm
  Kill in % after 6 d: 0%
[3]; 4 ppm
  Kill in % after 6 d: 20%

## CC1(C)C(C=C(Cl)Cl)C1C(=O)OC(C#N)c1ccc(F)c(Oc2ccccc2)c1 (stereo not drawn) [β-cyfluthrin]
[1]; 0.16 ppm
  Kill in % after 3 d: 15%
[2]; 0.16 ppm
  Kill in % after 6 d: 65%
